Reference: PMC9879991, “Biomolecular condensates formed by designer minimalistic peptides” (Nature Communications, 2023)
Read-outs that look alike come from different tables or passages of the source. No end group written: not given here.

What was measured:
[1] = solution NMR
Protocol: pKa values were determined by following the chemical shifts of Trp1-Hα and Trp1-Hβ at pH values of 6.0, 7.0, 7.5, 8.0 and
9.0. The 10 obtained chemical shifts were fitted to the Henderson-Hasselbach equation with the assumption that peak
position is a weighted average of the two end-point chemical shifts; optimization parameters were the two end-point shifts
(representing fully ionized and fully deionized forms of the N-terminal amino group of the peptide. Errors were determined
by Monte Carlo simulations with a measurement error of 0.01 ppm for all chemical shifts.

[2] = Encapsulation efficiency of peptide droplets, fluorescein payload; assay type: physicochemical; details: C initial 10 µM, 20 mM peptide; for %EE: 20 mM Tris + 0.2 M NaCl pH 8, 15,000 g 10 min, supernatant absorbance 490 nm
Source text: Next, we studied how peptide composition affects the encapsulation efficiency of the droplets by using GFP, rhodamine B, and fluorescein as fluorescent payload model systems (Fig. 4). We analyzed the encapsulation efficiency of the fluorescent payloads by using both confocal microscopy and absorbance measurements of the payloads in the dilute vs. the condensed phase (Fig. 4a–c). […] WGR-1 has the highest EE of fluorescein. In addition to π-π interactions, WGR-1 might form hydrogen bonding with the hydroxyl groups or electrostatic interactions with the deprotonated carboxylic acid of the dye.
Stock solutions (1 mM) of the fluorescein and rhodamine B dye molecules were prepared in 20 mM Tris buffer. Coacervate solutions of 20 mM peptide were prepared in 20 mM Tris + 0.2 M NaCl at pH 8. From these, a volume of 148.5 µl was mixed with 1.5 µl of dye solution in a 1.5 ml Eppendorf tube and pipetted. After 10 min the samples were centrifuged at 15,000 × g for 10 min. A volume of 120 μl from the supernatant was collected and vortexed and then the absorbance of 35 μl triplicates was measured (at λ = 490 nm for fluorescein and λ = 555 nm for RhB) in a 384 well black plate by Biotek H1 synergy plate reader (purchased from Lumitron, Israel). For GFP, a 7.5 µl of 20 mM Tris buffer to a 7.5 μl GFP aliquot from the purchased stock solution. The 15 µl of GFP solution was added to 135 µl of peptide solution and was mixed in a 1.5 ml Eppendorf tube and pipetted. The concentration of GFP at the supernatant was measured via fluorescence. All experiments were performed in triplicate. The concentration of the supernatant solutions determinate by calibration curves. Imaging was made to 30 μl of uncentrifuged samples. Efficiency of encapsulation (%EE) was calculated using Eq. 2. 2 %EE=CT−Csup/CT

[3] = solution NMR, S.D. in next row
Source text: Source data are provided as a Source Data file.
(1 picture or pasted object on this page, not shown here)

[4] = Turbidity analysis of peptide LLPS at 20 mM at varying pH; assay type: physicochemical; details: mean, Figure S8, for NMR experiment
Protocol: 150 μl of 20 mM peptide solutions were prepared in 20 mM Tris buffer. The pH was adjusted to the desired value of 6, 7, 8, 9, 10, and 11 then the turbidity of 35 μl was measured in triplicates at λ = 500 nm using a BioTek H1 synergy plate reader (purchased from Lumitron, Israel).
Supplementary Figure 7. CD analysis of peptides at 1 mM with and without NaCl.
Supplementary Figure 8. a. Turbidity analysis of peptide LLPS at a concentration of 20 mM at varying pH values. WGR-10 contains a Pro/Gln substitution. Each point represents an average of n=3, data are presented as mean values +/- SD b. Optical microscopy images of peptides at 20 mM at pH
10. Scale bar=50 μm. Source data are provided as a Source Data file. […]

[5] = Turbidity analysis of WGR-1 with and without 0.5% FITC-labeled peptide; assay type: physicochemical; details: Tris buffer pH 8, 0.2 M NaCl, mean of n=3
[6] = assay type: physicochemical; details: for Apparent diffusion coefficient D, condensed phase (FRAP) / t1/2 of the FRAP recovery: 20 mM peptide, 0.5% FITC-labeled, tris pH 8, 0.2 M NaCl
Protocol: Next, we studied whether the peptide sequence affects the material properties of the resulting liquid droplets. For this, we performed FRAP analysis using laser scanning confocal microscopy of 0.5% FITC-labeled peptides. […] The apparent diffusion coefficient for each peptide was calculated as1 Dapp=r^2/t where t is the recovery time. The calculated apparent diffusion coefficients of the peptides were in the 1.7–5.5*10^−14 m^2 s^−1 range (Supplementary Table 1).
Fig. 3 Strength of intermolecular interactions affects peptide droplet dynamics. a–c FRAP analysis of WGR-1, WGR-3, WGR-4, and WGR-5, performed using laser scanning confocal microscopy at 20 mM in Tris buffer at pH 8 with 0.2 M NaCl using 0.5% FITC-labeled peptides. a Representative confocal microscopy images of FRAP for individual droplets. Scale bars = 5 μm. FRAP recovery plots (b), apparent diffusion coefficient (c), and t1/2 of the recovery (d). Data are presented as mean values +/− SD, n = 5 (WGR-1), 4 (WGR-3, WGR-4), and 5 (WGR-5). Source data are provided as a Source Data file.
FRAP experiments were performed by a Zeiss Zen 900 confocal microscope with ×20/0.8 NA Plan- Apochromat air objective. For each of the peptides, out of a total peptide concentration of 20 mM we used 0.5% FITC-labeled peptide, in tris buffer pH 8 with 0.2 M NaCl. A circular area with radius of 2.5 μm was bleached with a 488 nm laser 100% intensity at 10 iterations; subsequent recovery of the bleached area was recorded with a 488 nm laser. Monitoring of fluorescence recovery in the condensates was analyzed using Zen Blue 3.2 software (Zeiss). Photobleaching correction and recovery time were calculated using OriginLab 9.95. The final FRAP recovery curve is the average of recovery curves collected from n = 4–6 separate droplets.

[7] = not given; remark: listed apart in the source
[8] = FRAP of WGR-1 droplets, replicate 1

WGRGRGRGWPGVGY [WGR-1]
pKa of the N-terminal amine group ([1]; Trp1-Hα and Trp1-Hβ shifts at pH 6.0, 7.0, 7.5, 8.0, 9.0, Henderson-Hasselbach fit, error by Monte Carlo): 7.50 ± 0.01
pKa of the Tyr14 phenolic ring ([1]; pH-induced chemical shift changes): ~ 10
%EE ([2]; replicate 1, given as fraction): 0.888
%EE ([2]; replicate 2, given as fraction): 0.8098
%EE ([2]; replicate 3, given as fraction): 0.7632
Encapsulation efficiency (EE) ([2]; 20 mM Tris + 0.2 M NaCl pH 8, supernatant absorbance 490 nm, mean of n=3, in percent): 82.0333%
D dilute phase (NMR), apparent diffusion coefficient [3]: 1.91E-10 m^2/sec
differential NaCl-induced change, largest (residue P10): 5.5 Hz
Turbidity as asorbance at 500 nm ([4]; pH 6): 0.0085
Turbidity as asorbance at 500 nm ([4]; pH 7): 0.019
Turbidity as asorbance at 500 nm ([4]; pH 8): 0.01867
Turbidity as asorbance at 500 nm ([4]; pH 9): 0.03567
Turbidity as asorbance at 500 nm ([4]; pH 10): 1.253
Turbidity as asorbance at 500 nm ([4]; pH 11): 1.988
Turbidity as asorbance at 350 nm ([5]; peptide concentration 10 (mM)): 0.3393
Turbidity as asorbance at 350 nm ([5]; peptide concentration 20 (mM)): 2.135
Apparent diffusion coefficient D, condensed phase (FRAP) ([6]; Dapp=r^2/t, mean of n=4-5 droplets): 4.58E-14 m^2 s^-1
Apparent diffusion coefficient D, condensed phase (FRAP) ([6]; bleached radius 2.5 μm, droplet 1): 4.047e-14 m^2 s^-1
t1/2 of the FRAP recovery ([6]; droplet 1): 37.1535
t1/2 of the FRAP recovery ([6]; droplet 2): 29.5706
t1/2 of the FRAP recovery ([6]; droplet 3): 25.8937
t1/2 of the FRAP recovery ([6]; droplet 4): 27.3852
t1/2 of the FRAP recovery ([6]; droplet 5): 32.7563
x=t at y=0.5a (t1/2 of FRAP recovery) ([6]; FRAP of WGR-1 droplets, from fit, mean of 5 droplets (stdev 4.50361)): 30.5519 s
x=t at y=0.95a (time to 95% of plateau recovery) ([6]; FRAP of WGR-1 droplets, from fit, mean of 5 droplets (stdev 17.8362)): 138.34 s
x=t at y=0.5a (t1/2 of FRAP recovery) ([6]; FRAP of WGR-1 droplets, from fit, replicate 1): 37.1535 s
x=t at y=0.5a (t1/2 of FRAP recovery) ([6]; FRAP of WGR-1 droplets, from fit, replicate 2): 29.5706 s
x=t at y=0.5a (t1/2 of FRAP recovery) ([6]; FRAP of WGR-1 droplets, from fit, replicate 3): 25.8937 s
x=t at y=0.5a (t1/2 of FRAP recovery) ([6]; FRAP of WGR-1 droplets, from fit, replicate 4): 27.3852 s
x=t at y=0.5a (t1/2 of FRAP recovery) ([6]; FRAP of WGR-1 droplets, from fit, replicate 5): 32.7563 s
%recovery (mean of fitted plateau a of the FRAP recovery curves) ([6]; FRAP of WGR-1 droplets, normalized intensity fitted with parameters a, b, c, mean of 5 droplets (stdev 7.03086)): 78.6308%
D (apparent diffusion coefficient from FRAP), average ([6]; FRAP of WGR-1 droplets, average of 5 droplets (stdev 6.05E-15)): 4.58E-14 m^2 s^-1
D (apparent diffusion coefficient from FRAP) [6, 8]: 4.05E-14 m^2 s^-1
a (fitted plateau of normalized FRAP recovery) [6, 8]: 68.4582
D condensed phase (FRAP), apparent diffusion coefficient ([6]; condensed phase, FRAP, mean, S.D. in next row): 4.52E-14 m^2/sec
differential NaCl-induced change (20 vs 5 mM), average [7]: 3.5 Hz
